From US20090005395A1 (Solvay Pharmaceuticals, B.V., priority 2007, published 2009)
Where two headings read alike, the source gives them in different places.

Experiments:
CYP2C9 = CYP2C9 (Homo sapiens, UniProt P11712); conditions: cited from earlier work
PDE-I = experiment: In vitro inhibition of phosphodiesterases (CEREP): PDE-I; conditions: bovine brain
PDE-V = PDE-V (Homo sapiens, UniProt O76074); conditions: cited from earlier work
CYP3A4 = CYP3A4 (Homo sapiens, UniProt P08684); conditions: cited from earlier work
Chain of CYP3A4 (P08684 whole entry): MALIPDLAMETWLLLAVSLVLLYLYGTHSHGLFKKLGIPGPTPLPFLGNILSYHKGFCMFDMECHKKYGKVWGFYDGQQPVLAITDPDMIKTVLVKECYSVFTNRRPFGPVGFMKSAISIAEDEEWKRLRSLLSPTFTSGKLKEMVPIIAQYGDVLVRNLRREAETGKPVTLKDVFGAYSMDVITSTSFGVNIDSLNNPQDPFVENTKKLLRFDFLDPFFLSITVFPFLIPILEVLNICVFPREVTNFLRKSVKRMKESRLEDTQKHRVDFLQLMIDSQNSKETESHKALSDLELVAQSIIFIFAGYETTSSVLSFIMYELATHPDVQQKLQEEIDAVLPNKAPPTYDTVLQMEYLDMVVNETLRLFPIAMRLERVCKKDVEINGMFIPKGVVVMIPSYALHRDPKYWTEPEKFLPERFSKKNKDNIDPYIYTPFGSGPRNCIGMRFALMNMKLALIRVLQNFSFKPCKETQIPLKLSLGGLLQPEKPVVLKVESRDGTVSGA

PDE-IV = experiment: In vitro inhibition of phosphodiesterases (CEREP): PDE-IV; conditions: human U-937 monocytes
[1] = Plasma pharmacokinetics of sildenafil and its N-oxide; type: in vivo; conditions: male, NMRI, mouse, mice, plasma; for AUC: Tend = 7 hrs, read-out: AUC0→end; for AUC(0-inf): Tend = ∞
Procedure: Liquid Chromatography-Tandem Mass Spectrometry (LC-MS/MS) was performed using a Sciex API4000 LC-MS/MS. […] Compound peak area was used for quantification. The calibration curves were fitted to the model y=A+Bx+Cx^2 (y is the peak area of the analyte, x is the nominal calibration level in ng/ml (plasma) or ng/g (brain), A is the intercept, B is the slope and C is the description of the curvature). 1/x^2 weighing was used. LC-MS/MS system performance was monitored using a reference solution injected at standard intervals. […] The Lower Limit Of Quantification (LLOQ) was established at 1.00 ng/ml and 5.00 ng/brain, for plasma and brain samples, respectively. Reversed phase HPLC was performed using gradient elution by a Hypersil BDS C18 100×4.6 mm 3 μm analytical column, with a temperature of 45° C. and a flow of 1.00 ml/min: […]

[2] = Plasma and brain concentrations of sildenafil and its N-oxide after i.v. or p.o. administration to mice (LC-MS/MS); type: in vivo, male NMRI mice; conditions: sildenafil administered i.v. or p.o.
Procedure: Sildenafil and its N-oxide were analyzed in mouse plasma and brain samples using a generic bioanalytical method comprising protein precipitation and HPLC with MS/MS detection.
Sample preparation: Proteins in 100 μl plasma were precipitated with acetonitrile, and 5 μl samples of the obtained solution were analyzed. Complete brains were homogenized and centrifuged, and 10 μl samples of the supernatant were analyzed.
Liquid Chromatography-Tandem Mass Spectrometry (LC-MS/MS) was performed using a Sciex API4000 LC-MS/MS. Quantification of the samples was done using extracted calibration samples, treated the same as the study samples in the range of 1-5000 ng/ml and 5.0-5000 ng/brain for plasma and brains samples, respectively. Compound peak area was used for quantification. The calibration curves were fitted to the model y=A+Bx+Cx^2 (y is the peak area of the analyte, x is the nominal calibration level in ng/ml (plasma) or ng/g (brain), A is the intercept, B is the slope and C is the description of the curvature). 1/x^2 weighing was used. LC-MS/MS system performance was monitored using a reference solution injected at standard intervals. The method use for testing was not validated in detail, therefore the reported concentrations were good estimations. The Lower Limit Of Quantification (LLOQ) was established at 1.00 ng/ml and 5.00 ng/brain, for plasma and brain samples, respectively. […]

[3] = in vivo; cited from earlier work

Chain of CYP2C9 (P11712 whole entry): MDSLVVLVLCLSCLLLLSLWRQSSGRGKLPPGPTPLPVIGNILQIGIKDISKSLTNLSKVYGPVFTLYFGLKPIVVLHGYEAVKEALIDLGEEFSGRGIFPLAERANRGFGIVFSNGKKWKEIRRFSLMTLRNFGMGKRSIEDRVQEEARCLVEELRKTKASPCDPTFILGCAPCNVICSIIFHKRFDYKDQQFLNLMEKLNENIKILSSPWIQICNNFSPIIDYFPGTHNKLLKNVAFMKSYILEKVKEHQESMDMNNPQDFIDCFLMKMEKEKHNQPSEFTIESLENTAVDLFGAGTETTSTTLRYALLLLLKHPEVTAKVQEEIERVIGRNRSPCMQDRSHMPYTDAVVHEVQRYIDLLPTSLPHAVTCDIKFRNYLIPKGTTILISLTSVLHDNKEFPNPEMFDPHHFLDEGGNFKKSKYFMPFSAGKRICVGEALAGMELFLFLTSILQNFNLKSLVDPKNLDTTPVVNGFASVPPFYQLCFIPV

In the case of `CCCc1nn(C)c2c(=O)[nH]c(-c3cc(S(=O)(=O)N4CCN(C)CC4)ccc3OCC)nc12` [Sildenafil, 1-[4-ethoxy-3-(6,7-dihydro-1-methyl-7-oxo-3-propyl-1H-pyrazolo[4,3-d]pyrimidin-5-yl)phenyl-sulfonyl]-4-methylpiperazine, reference compound], the “clearance route by hepatic microsomal iso-enzyme CYP2C9” value (CYP2C9) is listed as “minor route”, the “pIC50 PDE-I” value (PDE-I) is listed as 5.0 and the “more potent on PDE-V than on PDE-1” value (PDE-V; in vitro, versus PDE-1) is listed as > 80 fold. The “more potent on PDE-V than on PDE-II” value (PDE-V; in vitro, versus PDE-II) was > 700 fold, the “more potent on PDE-V than on PDE-IV” value (PDE-V; in vitro, versus PDE-IV) was > 700 fold and the “more potent on PDE-V than on PDE-IX” value (PDE-V; in vitro, versus PDE-IX) was > 700 fold. The “more potent on PDE-V than on PDE-VI” value (PDE-V; in vitro, versus PDE-VI) was “about 10 fold”, the “more potent on PDE-V than on PDE-VII” value (PDE-V; in vitro, versus PDE-VII) was > 700 fold and the “more potent on PDE-V than on PDE-VIII” value (PDE-V; in vitro, versus PDE-VIII) was > 700 fold. The “more potent on PDE-V than on PDE-X” value (PDE-V; in vitro, versus PDE-X) was > 700 fold, the “more potent on PDE-V than on PDE-XI” value (PDE-V; in vitro, versus PDE-XI) was > 700 fold and the “clearance route by hepatic microsomal iso-enzyme CYP3A4” value (CYP3A4) was “major route”. The “pIC50 PDE-IV” value (PDE-IV) was 4.8, the Tmax ([1]; iv, i.v. 1 mg/kg) was 0 h and the half-life ([1]; iv, i.v. 1 mg/kg) was 1.4 h. It also gave an AUC ([1]; iv, i.v. 1 mg/kg) of 232 ng·h/mL, an AUC(0-inf) ([1]; iv, i.v. 1 mg/kg) of 232 ng·h/mL and a Cmax ([1]; iv, i.v. 1 mg/kg, extrapolated to T0 (time zero), read-out: Cmax (C0)) of 538 ng/mL. For the same compound, the Vd ([1]; iv, i.v. 1 mg/kg) was 8.9 L/kg, the clearance ([1]; iv, i.v. 1 mg/kg) was 71.8 mL/min/kg and the bioavailability ([1]; po, 10 mg/kg, i.v.) was 28.9%. It also gave a Tmax ([1]; po, p.o. 10 mg/kg) of 0.2 h, a half-life ([1]; po, p.o. 10 mg/kg) of 1.1 h and an AUC ([1]; po, p.o. 10 mg/kg) of 661 ng·h/mL. For the same compound, the AUC(0-inf) ([1]; po, p.o. 10 mg/kg) was 670 ng·h/mL, the Cmax ([1]; po, p.o. 10 mg/kg, read-out: Cmax) was 533 ng/mL and the “N-oxide in the brain” value [2] was “no trace can be found at all”.
For `CCCc1nn(C)c2c(=O)[nH]c(-c3cc(S(=O)(=O)N4CCNCC4)ccc3OCC)nc12` [UK 103,320, 1-[[3-(6,7-dihydro-1-methyl-7-oxo-3-propyl-1H-pyrazolo[4,3-d]pyrimidin-5-yl)-4-ethoxy-phenyl]sulfonyl]-piperazine], the “in vitro potency for PDE-V relative to the parent drug” value (PDE-V; of sildenafil) is given as “approximately 50%”, the “potency relative to sildenafil” value (PDE-V; reported) is given as “about half” and the “Plasma concentrations of the metabolite relative to those seen for sildenafil” value [3] is given as “approximately 40%”.
